The values below come from patent US6566084B1, “Catalytic antibodies against cocaine and methods of using and producing same” (priority 1992, dated 2003).

For series [1] the following is noted: in vivo; cited from earlier work.
Series [2] is described as follows: Spontaneous hydrolysis of the methyl ester of cocaine to benzoyl ecgonine (HPLC). The settings on record: buffer, pH 7.
The test system of series [3] is mAb 3B9. Nature of the series: Inhibition of 3B9-catalyzed cocaine hydrolysis. It is filed as biochemical, BALB/c mice. Particulars: 1 mM.
Series [4] concerns mAb 6A12. Kind of series: Inhibition of 6A12-catalyzed cocaine hydrolysis. Particulars: 1 mM.
For series [5] the following is noted: equine BChE, ph7.4, published sources; cited from earlier work.

What is called half-life is the time needed for the level to fall by half in the phase considered. High values mean slow decline, low ones rapid decline. For `COC(=O)[C@H]1[C@@H](OC(=O)c2ccccc2)C[C@@H]2CC[C@H]1N2C` [cocaine], the “dose excreted unchanged in the urine” value in series [1] was less than 10%. The compound further gave a half-life in series [2] of 20 h.

`CNC(=O)Oc1ccc2c(c1)[C@]1(C)CCN(C)[C@@H]1N2C` [eserine]: the “effect of serum esterase inhibitor on enzyme” value in series [3] and in series [4] was “unaffected” in each case.

As usually defined, the Km is the concentration of substrate that gives half-maximal velocity. With “BChE: equine butyrylcholinesterase, the principal cocaine esterase in serum”, in series [5], the Kcat was 0.02 s⁻¹ and the Km was 38 µM.
